Test [1] has as its target T1, hFXR (Homo sapiens (Human), UniProt Q96RI1). Kind of test: In Vitro FXR Assay (PGL3), luciferase reporter in transfected CV-1 cells. In kind it is cell-based. The settings on record: PGL3-ECRE*6-luc reporter, hFXR/hRXR, 18 hrs incubation. On the procedure:
CV-1 cells were seeded at a density of 2,000,000 cells in a T175 flask with DMEM+10% charcoal double-stripped FBS and incubated at 37° C. in a 5% CO2 for 18 h (O/N).
After 18 h of incubation, the medium in the T175 flask was changed with fresh DMEM+10% charcoal super-stripped serum.
To prepare the transfection reaction mixture, the transfection reagent (X-tremeGENE HP from Roche, Cat #06 366 236 001) was added in to a 1.5 mL microcentrifuge tube labelled “A” at a ratio of 1:3 (DNA in μg: transfection reagent in μL). OptiMEM medium (Life Technologies, Cat #31985-062) was added accordingly to provide a total volume of 1 mL. The transfection reaction mixture was then briefly vortexed and incubated at room temperature for 5 minutes.
In a separate 1.5 mL microcentrifuge tube labelled “B”, 100 μL OptiMEM and plasmids XPD90Gal pCMXhFXRfl, pCMXhRXRfl+PGL3-ECRE*6-luc+CMX-YFP in the ratio 2 μg: 2 μg:18 μg:3 μg were added. This microcentrifuge tube “B” was then briefly vortexed and incubated at room temperature for 5 minutes.
The total volume in tube labelled “A” was then transferred in to tube labelled “B.” The mixture was then briefly vortexed and the transfection:DNA complex was then incubated for about 15-20 minutes at room temperature.
Following incubation, the transfection reagent/DNA mixture complex was then added to cells in the T175 flask and the cells were incubated at […] (O/N) at 37° C. in 5% CO2.
In a 96 well plate, a half logarithmic serial dilution was prepared. OptiMEM was used as the diluent. Using any of one of the compounds described herein, a compound stock solution of 10 mM was prepared. An initial 1:100 dilution was made into the first well for a final concentration of 100 μM. The final concentrations in the 96-well plate was prepared by using a multichannel pipette to transfer 5 μL of the diluted compound to 384-well plate in quadruplicate.
Cells in T175 flask were trypsinized and cells were resuspending in 40 mL phenol red free DMEM+10% charcoal super-stripped FBS. Typically, one T175 flask was sufficient to seed two 384 well plates. CV-1 cells were seeded at 45 μL cell suspension/well using a multichannel pipet or a 384 multidrop dispenser. The cells were then incubated for 18 hrs, overnight.
After removing the plates from the incubator, the medium was flicked out of plate and 384 well plate was turned upside down onto paper towel. The remaining medium was gently tapped out. 15 μL lysis buffer was then added to each well using a multichannel pipet or a 384 well multi-drop dispenser. After incubation for 10 minutes at room temperature on shaker, 30 μL Luciferase buffer was added to each well. Luminescence counts were taken immediately using the Perkin Elmer Envision.
The ability of the compounds disclosed herein to […] FXR activity was quantified and the respective EC50 value was determined. Fex=fexaramine.
(Reporter assays use an easily measured gene product as a stand-in for the process of interest.)

Test [2] deals with T1, hFXR. Kind of test: In Vitro FXR Assay (TK), luciferase reporter in transfected CV-1 cells. In kind it is cell-based. The settings on record: TK-ECRE-luc reporter, hFXR/hRXR, 18 hrs, maximum efficacy <25% of Fexaramine control classified as '+'. The gist of the method: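 Reporter transactivation by hFXR was measured in CV-1 cells carrying hRXR and a TK-ECRE-luc construct, with compound treatment for 18 h before lysis and luminescence detection.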

T1 sequence (Q96RI1 whole entry): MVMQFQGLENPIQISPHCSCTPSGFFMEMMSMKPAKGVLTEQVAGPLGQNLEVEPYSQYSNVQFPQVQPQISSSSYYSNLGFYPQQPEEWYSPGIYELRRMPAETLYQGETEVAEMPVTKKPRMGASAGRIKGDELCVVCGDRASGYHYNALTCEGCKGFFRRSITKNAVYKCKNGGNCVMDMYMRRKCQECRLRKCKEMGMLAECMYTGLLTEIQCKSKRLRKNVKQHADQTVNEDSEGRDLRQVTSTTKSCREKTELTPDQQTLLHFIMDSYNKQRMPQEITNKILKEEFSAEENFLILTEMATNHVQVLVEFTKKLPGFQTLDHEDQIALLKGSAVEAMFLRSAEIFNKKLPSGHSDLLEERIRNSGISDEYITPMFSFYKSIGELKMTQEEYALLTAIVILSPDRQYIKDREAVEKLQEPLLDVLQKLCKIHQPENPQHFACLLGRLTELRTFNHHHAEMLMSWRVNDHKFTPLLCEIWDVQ
T1 sequence (P19793 whole entry partner): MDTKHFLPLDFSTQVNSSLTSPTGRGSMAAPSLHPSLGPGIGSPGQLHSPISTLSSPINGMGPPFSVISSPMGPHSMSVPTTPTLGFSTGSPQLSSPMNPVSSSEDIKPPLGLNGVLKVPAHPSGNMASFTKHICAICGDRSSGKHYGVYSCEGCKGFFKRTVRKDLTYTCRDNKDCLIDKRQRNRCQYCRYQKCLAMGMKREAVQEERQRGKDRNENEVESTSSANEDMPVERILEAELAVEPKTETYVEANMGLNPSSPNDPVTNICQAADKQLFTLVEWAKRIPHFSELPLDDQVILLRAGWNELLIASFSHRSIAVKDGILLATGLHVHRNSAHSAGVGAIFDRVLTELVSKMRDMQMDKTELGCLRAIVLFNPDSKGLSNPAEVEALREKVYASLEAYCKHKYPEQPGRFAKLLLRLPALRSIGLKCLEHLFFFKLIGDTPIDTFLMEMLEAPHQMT

On to `COC(=O)/C=C/c1ccnc(N(Cc2ccc(-c3ccc(N(C)C)cc3)cc2)C(=O)C2CCCCC2)c1` [Compound 1, (E)-Methyl 3-(2-(N-((4′-(dimethylamino)-[1,1′-biphenyl]-4-yl)methyl)cyclohexanecarboxamido)pyridin-4-yl)acrylate], for which the “Cmpd/Fex (ratio of the EC50 for the test compound relative to the EC50 of the Fexaramine control)” value at hFXR [1] is “+++ (‘+++’ means Cmpd/Fex < 10)”. Also, at hFXR [2], the EC50 was at most 1000 nM. Take `COC(=O)/C=C/c1cccc(N(Cc2ccc(-c3ccc(N(C)C)cc3)cc2)C(=O)C2CCCCC2)n1` [Compound 2, (E)-Methyl 3-(6-(N-((4′-(dimethylamino)-[1,1′-biphenyl]-4-yl)methyl)cyclohexanecarboxamido)pyridin-2-yl)acrylate]: the “Cmpd/Fex (ratio of the EC50 for the test compound relative to the EC50 of the Fexaramine control)” value on hFXR [1] is given as “++ (‘++’ means Cmpd/Fex > 10 & < 100)”. Moreover, at hFXR [2], the EC50 is at least 10000 nM. On the same counts, the results for `COC(=O)/C=C/c1cc(N(Cc2ccc(-c3ccc(N(C)C)cc3)cc2)C(=O)C2CCCCC2)ccn1` [Compound 3, (E)-Methyl 3-(4-(N-((4′-(dimethylamino)-[1,1′-biphenyl]-4-yl)methyl)cyclohexanecarboxamido)pyridin-2-yl)acrylate] are “+++ (‘+++’ means Cmpd/Fex < 10)” and 1000 to 10000 nM. The matching figures for `COC(=O)/C=C/c1ccnc(N(Cc2ccc(-c3ccc(N(C)C)cc3)cc2)C(=O)C2CCOCC2)c1` [Compound 4, (E)-Methyl 3-(2-(N-((4′-(dimethylamino)-[1,1′-biphenyl]-4-yl)methyl)tetrahydro-2H-pyran-4-carboxamido)pyridin-4-yl)acrylate]: “+++ (‘+++’ means Cmpd/Fex < 10)” and 1000 to 10000 nM. On to `COC(=O)/C=C/c1ccnc(N(Cc2ccc(-c3ccc(N(C)C)nc3)cc2)C(=O)C2CCOCC2)c1` [Compound 6, (E)-Methyl 3-(2-(N-(4-(6-(dimethylamino)pyridin-3-yl)benzyl)tetrahydro-2H-pyran-4-carboxamido)pyridin-4-yl)acrylate], for which the “Cmpd/Fex (ratio of the EC50 for the test compound relative to the EC50 of the Fexaramine control)” value on hFXR [1] is “+ (‘+’ means Cmpd/Fex > 100)”. Besides, at hFXR [2], the EC50 lay in the range of 1000 to 10000 nM. The matching figures for `COC(=O)/C=C/c1ccnc(N(Cc2ccc(-c3ccc(N(C)C)nc3)cc2)C(=O)[C@H]2CC[C@H](O)CC2)c1` [Compound 7, (E)-Methyl 3-(2-(trans-N-(4-(6-(dimethylamino)pyridin-3-yl)benzyl)-4-hydroxycyclohexanecarboxamido)pyridin-4-yl)acrylate]: “+ (‘+’ means Cmpd/Fex > 100)” and 1000 to 10000 nM. The matching figures for `COC(=O)c1ccc2c(N(Cc3ccc(-c4ccc(N(C)C)cc4)cc3)C(=O)C3CCCCC3)cccc2c1` [Compound 8, Methyl 5-(N-((4′-(dimethylamino)-[1,1′-biphenyl]-4-yl)methyl)cyclohexanecarboxamido)-2-naphthoate]: “++ (‘++’ means Cmpd/Fex > 10 & < 100)” and 1000 to 10000 nM. `CN(C)c1ccc(-c2ccc(CN(C(=O)C3CCCCC3)c3cccc4ccccc34)cc2)cc1` [Compound 9, N′-((4′-(Dimethylamino)-[1,1′-biphenyl]-4-yl)methyl)-N-(naphthalen-1-yl)cyclohexanecarboxamide]: the “Cmpd/Fex (ratio of the EC50 for the test compound relative to the EC50 of the Fexaramine control)” value on hFXR [1] is “++ (‘++’ means Cmpd/Fex > 10 & < 100)”. In addition, the EC50 on hFXR [2] is at least 10000 nM. Take `COC(=O)c1ccc2c(N(C[C@H]3CC[C@H](c4ccccc4C)CC3)C(=O)CC(C)(C)C)nccc2c1` [Compound 89, Methyl 1-(3,3-dimethyl-N-((trans-4-(o-tolyl)cyclohexyl)methyl)butanamido)isoquinoline-6-carboxylate]: the EC50 on hFXR [2] was 1000 to 10000 nM. Still for that read-out and setting: the figure for `COC(=O)c1ccc2c(N(C[C@H]3CC[C@H](c4cccc(C)c4)CC3)C(=O)CC(C)(C)C)nccc2c1` [Compound 90, Methyl 1-(3,3-dimethyl-N-((trans-4-(m-tolyl)cyclohexyl)methyl)butanamido)isoquinoline-6-carboxylate] is at most 1000 nM; for `COC(=O)c1ccc2c(N(C[C@H]3CC[C@H](c4ccccc4OC)CC3)C(=O)CC(C)(C)C)nccc2c1` [Compound 92, Methyl 1-(N-((trans-4-(2-methoxyphenyl)cyclohexyl)methyl)-3,3-dimethylbutanamido)isoquinoline-6-carboxylate] it is at least 10000 nM; for `COC(=O)c1ccc2c(N(C[C@H]3CC[C@H](c4ccc(OC)cc4)CC3)C(=O)CC(C)(C)C)nccc2c1` [Compound 94, Methyl 1-(N-((trans-4-(4-methoxyphenyl)cyclohexyl)methyl)-3,3-dimethylbutanamido)isoquinoline-6-carboxylate] it is at most 1000 nM. Same read-out and setting: the figure for `COC(=O)c1ccc2c(N(C[C@H]3CC[C@H](c4ccc(Cl)cc4)CC3)C(=O)CC(C)(C)C)nccc2c1` [Compound 95, Methyl 1-(N-((trans-4-(4-chlorophenyl)cyclohexyl)methyl)-3,3-dimethylbutanamido)isoquinoline-6-carboxylate] is 1000 to 10000 nM. Still for that read-out and setting: the figure for `COC(=O)c1ccc2c(N(C[C@H]3CC[C@H](c4ccc(OC)c(C)c4)CC3)C(=O)CC(C)(C)C)nccc2c1` [Compound 96, Methyl 1-(N-((trans-4-(4-methoxy-3-methylphenyl)cyclohexyl)methyl)-3,3-dimethylbutanamido)isoquinoline-6-carboxylate] is at most 1000 nM; for `COC(=O)c1ccc2c(N(CC3CCN(c4ccc(OC)c(C)c4)CC3)C(=O)CC(C)(C)C)nccc2c1` [Compound 98, Methyl 1-(N-((1-(4-methoxy-3-methylphenyl)piperidin-4-yl)methyl)-3,3-dimethylbutanamido)isoquinoline-6-carboxylate] it is 1000 to 10000 nM. At hFXR [2], `COC(=O)c1ccc2c(N(C[C@H]3CC[C@H](c4ccc(OC)c(C)c4)CC3)C(=O)[C@H]3CC[C@H](O)CC3)nccc2c1` [Compound 99, Methyl 1-(trans-4-hydroxy-N-((trans-4-(4-methoxy-3-methylphenyl)cyclohexyl)methyl)cyclohexanecarboxamido) isoquinoline-6-carboxylate] yielded an EC50 of at most 1000 nM.

Regarding `COc1ccc([C@H]2CC[C@H](CN(C(=O)CC(C)(C)C)c3nccc4cc(C(=O)O)ccc34)CC2)cc1C` [Compound 100, 1-(N-((trans-4-(4-Methoxy-3-methylphenyl)cyclohexyl)methyl)-3,3-dimethylbutanamido)isoquinoline-6-carboxylic Acid], on hFXR [2], the EC50 lay in the range of 1000 to 10000 nM.

At hFXR [2], `COc1ccc(-c2ccc(CN(C(=O)CC(C)(C)C)c3nccc4cc(C(=O)O)ccc34)cc2)cc1C` [Compound 101, 1-(N-((4′-methoxy-3′-methyl-[1,1′-biphenyl]-4-yl)methyl)-3,3-dimethylbutanamido) isoquinoline-6-carboxylic acid] yielded an EC50 of at least 10000 nM. Still for that read-out and setting: the figure for `COC(=O)/C=C/c1ccc2c(N(Cc3ccc(-c4ccc(OC)c(C)c4)cc3)C(=O)CC(C)(C)C)nccc2c1` [Compound 102, (E)-Methyl 3-(1-(N-((4′-methoxy-3′-methyl-[1,1′-biphenyl]-4-yl)methyl)-3,3-dimethylbutanamido)isoquinolin-6-yl)acrylate] is 1000 to 10000 nM; for `COc1ccc(-c2ccc(CN(C(=O)CC(C)(C)C)c3nccc4cc(/C=C/C(=O)O)ccc34)cc2)cc1C` [Compound 103, (E)-3-(1-(N-((4′-Methoxy-3′-methyl-[1,1′-biphenyl]-4-yl)methyl)-3,3-dimethylbutanamido)isoquinolin-6-yl)acrylic Acid] it is 1000 to 10000 nM. `COc1ccc(-c2ccc(CN(C(=O)CC(C)(C)C)c3nccc4cc(CCC(=O)O)ccc34)cc2)cc1C` [Compound 104, 3-(1-(N-((4′-Methoxy-3′-methyl-[1,1′-biphenyl]-4-yl)methyl)-3,3-dimethylbutanamido)isoquinolin-6-yl)propanoic Acid] registered an EC50 on hFXR [2] of 1000 to 10000 nM.

Usually EC50 stands for the midpoint of the concentration-response curve.

The values above are taken from patent US10377717B2, “Farnesoid X receptor agonists and uses thereof” (Metacrine, Inc., priority 2015, dated 2019).
